The values that follow come from US7462480B2, “Stimulation of microbial dechlorination of polychorinated biphenyls with halogenated ethenes” (University of Maryland Biotechnology Institute, priority 2002, dated 2008).

One series relates to O-17. Briefly: anaerobic enrichment culture of PCB dechlorinating bacterium O-17 with tetrachloroethene. The format is cell-based, bacterium ortho-dechlorinating strain O-17. The procedure: (§1) Culture Conditions. A sterile media was prepared composed of at least one of the following components in grams per liter (final concentration) of demineralized water: Na2CO3, 3.0; Na2HPO4, 0.6; NH4Cl, 0.5; cysteine-HCl.H2O, 0.25; Na2S.9H2O, 0.25; resazurin, 0.001. In addition, 1% (v/v) each of vitamin and trace element solutions was added. An anaerobic enrichment culture comprising either O-17 (GenBank Accession #: AF058005; Appl Environ Microbiol. 1998 September; 64(9):3359-67)or DF-1 (GenBank Accession #: AF393781; Appl Environ Microbiol. 2002 February; 68(2):807-12)capable of dechlorination of 2,3,5,6-tetrachlorobiphenyl (2,3,5,6-CB) in the absence of sediment was used in this study. Cultures were incubated at 30° C. in the dark. All gases were passed through a column of reduced copper turnings at 350° C. to remove traces of O2. Media (8 ml) were dispersed into culture tubes (16×160 mm) and sealed with Teflon®-lined butyl stoppers (The West Company, Lionville, Pa.) secured by aluminum crimp collars (Bellco Glass, Inc., Vineland, N.J.).
(§2) Congener 2,3,5,6-tetrachlorobiphenyl (2,3,5,6-CB) was also solubilized in tetrachloroethene and added to a fresh anaerobic enrichment culture comprising either O-17 or DF-1 and was incubated under strict anaerobic conditions at 30° C. in the dark. […]

For the next series, the system named is DF-1. Briefly: anaerobic enrichment culture of PCB dechlorinating bacterium DF-1 with tetrachloroethene. The format is cell-based, bacterium double flank-dechlorinating strain DF-1. The procedure: as §1, §2
The conditions of series [1]: partially soluble in water; cited from earlier work.
[2] abbreviates: 2,3,5,6-CB solubilized in tetrachloroethene, strict anaerobic conditions, 30° C. in the dark.
[3] abbreviates: PCBs and tetrachloroethene combined, simultaneously dechlorinated.

Molecules are shown by their SMILES.

As to `ClC(Cl)=C(Cl)Cl` [tetrachloroethene], the “population growth density relative to culture containing 2,3,5,6-CB alone” value in the series on O-17 (setting [2]) and in the series with DF-1 (setting [2]) was “increased population growth density” throughout. Besides, the “effect on PCB dechlorination” value in the series with O-17 (setting [3]) and with DF-1 (setting [3]) was “did not inhibit or significantly delay PCB dechlorination” in each case. Also, the solubility in water entry in series [1] was “up to 1 mM”.
